Source: patent publication US20170152245A1 (National Taiwan University, priority 2015, published 2017)

Assays:
[1] = system: human platelet suspension; assay: Collagen-induced platelet aggregation in human platelet suspension; type: cell-based; details: collagen 10 μg/ml; for % inhibition collagen: human platelet suspension, preliminary, compound concentration not given
Experimental: (§1) Human platelet suspension (PS) was prepared according to the method described previously. Briefly, blood sample, freshly obtained from healthy volunteers who had taken no medications during the preceding 2 weeks, was treated with acid citrate/dextrose (ACD) in a volume ratio of 9:1. After centrifugation at 120 g, 25° C. for 9 min, platelet-rich plasma was transferred into another plastic tube and incubated with heparin (6.4 U/ml) as well as prostaglandin E1 (1 μM). Platelets were spun down by centrifugation at 500 g, 25° C. for 8 min and subsequently washed two times with Tyrode solution (NaH2PO4 0.4 mM; NaCl 136.9 mM; KCl […]; NaHCO3 11.9 mM; CaCl2 2 mM; MgCl2 2.1 mM; glucose 11.1 mM; BSA 3.5 mg/ml; pH 7.35-7.4). The washed platelets were finally suspended in Tyrode's solution and the platelet count was adjusted to 3.75×10^8 platelets/ml. For platelet-rich plasma (PRP) preparation, whole blood was anticoagulated with 1/10 vol of sodium citrate (3.8%, w/v) and centrifuged at 150 g, 25° C. for 9 min.
(§2) Platelet aggregation was measured turbidimetrically with a Lumi-aggregometer (Payton Scientific) at 37° C. under stirring condition (900 rpm). Platelet suspensions were prewarmed to 37° C. for 2 min in a silicone-treated glass cuvette. Nstpbp5185 was added 3 min before the addition of platelet-aggregation inducers. The extent of platelet aggregation was determined by recording the increase of light transmission relative to that of control (maximal aggregation, as 100%) for 6 min after the addition of inducer. The final volume and platelet count for measuring platelet aggregation were 500 μl and 3×10^8/ml, respectively.

[2] = system: human platelet suspension; assay: ADP-induced platelet aggregation in human platelet suspension; type: cell-based; details: human platelet suspension; preliminary; compound concentration not given
Experimental: as §1, §2

[3] = system: human platelet suspension; assay: U46619-induced platelet aggregation in human platelet suspension; type: cell-based; details: for IC50: Homo sapiens, Platelet, U46619-induced aggregation, platelet suspension, read-out: P.S(U46619) IC50
Experimental: as §1, §2

[4] = target: T1, Thromboxane synthase (Homo sapiens, UniProt P24557); details: cited from earlier work; for Thromboxane synthase: Table III arrows, reference drugs
T1 construct: MDS
T1 sequence (P24557 1-533): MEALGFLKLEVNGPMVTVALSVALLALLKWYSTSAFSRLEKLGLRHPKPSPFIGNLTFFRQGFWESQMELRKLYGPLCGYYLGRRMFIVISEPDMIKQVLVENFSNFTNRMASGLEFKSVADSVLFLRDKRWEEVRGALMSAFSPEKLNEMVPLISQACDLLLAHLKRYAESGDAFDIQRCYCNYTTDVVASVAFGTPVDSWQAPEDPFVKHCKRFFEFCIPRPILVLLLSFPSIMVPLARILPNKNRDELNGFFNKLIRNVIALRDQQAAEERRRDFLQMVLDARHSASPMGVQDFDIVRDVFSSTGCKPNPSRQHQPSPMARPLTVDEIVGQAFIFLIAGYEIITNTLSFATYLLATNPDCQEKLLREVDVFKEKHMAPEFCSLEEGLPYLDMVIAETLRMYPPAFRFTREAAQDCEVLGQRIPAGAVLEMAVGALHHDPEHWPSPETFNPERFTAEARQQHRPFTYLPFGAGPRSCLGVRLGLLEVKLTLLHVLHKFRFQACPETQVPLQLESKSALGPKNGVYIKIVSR

[5] = target: T2, thromboxane receptor (Homo sapiens, UniProt P21731); details: cited from earlier work; for Thromboxane receptor: Table III arrows, reference drugs
T2 sequence (P21731 1-343): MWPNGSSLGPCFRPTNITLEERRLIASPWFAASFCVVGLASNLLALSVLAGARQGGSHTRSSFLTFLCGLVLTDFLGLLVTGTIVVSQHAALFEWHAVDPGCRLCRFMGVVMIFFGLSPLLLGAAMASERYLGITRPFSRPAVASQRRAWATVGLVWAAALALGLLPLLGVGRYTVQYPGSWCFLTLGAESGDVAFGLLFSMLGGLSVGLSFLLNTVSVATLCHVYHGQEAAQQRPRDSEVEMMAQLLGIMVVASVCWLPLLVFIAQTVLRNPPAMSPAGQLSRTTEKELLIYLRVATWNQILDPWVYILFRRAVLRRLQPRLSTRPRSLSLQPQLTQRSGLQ

[6] = system: PGI2 formation; details: Table III arrows, reference drugs; cited from earlier work
[7] = system: human platelet suspension; assay: Arachidonic acid-induced platelet aggregation in human platelet suspension; type: cell-based; details: AA 200 μM
Experimental: as §1, §2

[8] = system: Cox-1,-2; details: Table III arrows, reference drugs; cited from earlier work
[9] = system: human platelet-rich plasma; assay: Collagen-induced platelet aggregation in human platelet-rich plasma; type: cell-based; details: human PRP, data not shown, read-out: IC50 collagen-induced platelet aggregation in human PRP
Experimental: as §1, §2

[10] = system: mesenteric venules of mice; assay: Fluorescein sodium-induced platelet thrombus formation in mesenteric venules of mice; type: in vivo
Experimental: A modification of the method was used. Male ICR mice (12-14 g) were anesthetized with sodium pentobarbital (50 mg/kg, i.p.). […] Five min later, various doses of nstpbp5185 (2 and 4 μg/g), aspirin (150 and 250 μg/g), or DMSO (control) were administered by i.v. through other lateral tail vein. The injected volume of the nstpbp5185, aspirin, or DMSO (control) was smaller than 10 μl. A segment of the small intestine with its mesentery attached was exteriorized through a midline incision on the abdominal wall and placed onto a transparent plastic plate for microscopic observation. Frequent rinsing of the mesentery with warm isotonic saline kept at 37° C. was performed to prevent the mesentery from drying out. Microvessels in the mesentery were observed under transillumination from a halogen lamp. Venules with diameters of 30-40 μm were selected to be irradiated to produce a microthrombus. In the epi-illumination system, light from a 100-W mercury lamp was filtered through a filter (B-2A, Nikon, Tokyo, Japan) with a dichromic mirror (DM 510, Nikon). The filtered light eliminated wavelengths below 520 nm irradiated a microvessel through an objective lens (20×). The area of irradiation was about 100 μm in diameter on the focal plane. Ten minutes after administration of the dye, the irradiation by filtered light and a timer were simultaneously started, and thrombus formation was observed on a TV-monitor. Occlusion time was recorded as the time interval for inducing thrombus formation leading to cessation of blood flow.
After giving 50 μg/g fluorescein sodium, the irradiation of mesenteric venules induced thrombus formation which is consist of activated platelets and fibrin clots. […] In the vehicle-treated group, the average TTO was approximately 143.71±4.99 sec (n=17). The group pre-treated with compound 5185 (10 μg/g), the average TTO value was 208.67±6.99 sec (n=12).

[11] = system: mice carotid artery; assay: FeCl3-induced thrombus formation in mice carotid artery; type: in vivo; details: for time to FeCl3-induced occlusion: heparin 10 U kg^−1 or aspirin 40 μg g^−1 i.v.; for FeCl3-induced thrombus formation: heparin 100 U kg^−1 or aspirin 80 μg g^−1 i.v.
Experimental: FIG. 14 The antithrombotic activity of nstpbp5185 in FeCl3-induced thrombi formation in mice carotid artery. (A) Mice were intravenously administered with Heparin (10 or 100 U kg^−1), Aspirin (40 or 80 μg g^−1), or different doses of nstpbp5185 (B). After 5 min, FeCl3 injury was induced by a filter paper saturated with ferric chloride solution (10%). After removal of the paper, carotid blood flow (ml min^−1) was monitored continuously until thromboembolism formation or for 60 min. (C) Mice were orally administered with different doses of Aspirin and nstpbp5185 (D). Both drugs were suspended in 1% CMC. Blood flow monitoring were recorded used analyzed Labchart software (AD instruments). Data are presented as the mean±SEM (n≧3). **P<0.01 and ***P<0.001 as compared with the vehicle control (DMSO).
Mice were intravenously or orally administered with different doses of nstpbp5185.

[12] = system: human platelet suspension; assay: Thromboxane B2 formation in human platelet suspension; type: cell-based; details: Homo sapiens, Platelet; collagen-activated platelets; 500 μM; read-out: inhibition of TXB2 formation
Experimental: Human platelet suspension (3.75×10^8/ml) was preincubated in the presence or absence of nstpbp5185 or aspirin for 3 min before the addition of collagen or AA. Six minutes after the addition of agonist, […] indomethacin and 2 mM EDTA were added to the reaction suspension. After centrifugation in an Eppendorf centrifuge at 14,000 g for 2 min, the thromboxane B2 (TXB2), the stable metabolite of TXA2, levels of the supernatant were measured using a competitive enzyme-immuno assay (EIA) kit according to the instructions of the manufacturer.

[13] = system: rats; assay: Gastric damage in rats; type: in vivo; details: 150 μg g^−1 oral, 3 h
Experimental: Rats (Wistar) were fasted overnight then given aspirin at dose of 150 mg/kg or nstpbp5185 at 40 mg/kg. Both drugs were suspended in 1% carboxymethylcellulose. Three hours later, the rats were sacrificed, the stomach excised, and the extent of hemorrhagic erosions scored by an observer unaware of treatment the rats received. Each lesion larger than 2 mm was counted for comparison. The stomach was fixed in formalin (pH, 7.4) and photographed.

With `COc1cccc(Cn2c(-c3ccc(C)o3)nc3ccccc32)c1` [Example 6] the “% inhibition collagen” value [1] was 19.1% and the “% inhibition ADF” value [2] was 41.4 (n = 2) %.
For `Cc1ccc(Cn2c(-c3ccc(C)o3)nc3ccccc32)cc1` [Example 9, 1-(p-Methylbenzyl)-2-(5-methyl-2-furyl)benzimidazole], the IC50 [3] was 4.63 µM, the “% inhibition collagen” value [1] was 1.1% and the “% inhibition ADF” value [2] was 17.4 (n = 3) %.
In the case of `Cc1ccc(-c2nc3ccc(C(=O)c4ccccc4)cc3n2Cc2ccccc2)o1` [Example 69a, 1-Benzyl-6-benzoyl-2-(5-methyl-2-furyl)benzimidazole], the IC50 [3] is reported as 17.2 µM.
In the case of `Cc1ccc(-c2nc3ccc(C(=O)c4ccccc4)cc3n2Cc2ccc(Cl)cc2)o1` [Example 73, 6-Benzoyl-1-(4-chlorobenzyl)-2-(5-methyl-2-furyl)benzimidazole], the IC50 [3] is reported as > 50 µM.
In the case of `Cc1ccc(-c2nc3ccc(C(=O)c4ccccc4)cc3n2Cc2cccc(Cl)c2)o1` [Example 74, 6-benzoyl-1-(3-chlorobenzyl)-2-(5-methyl-2-furyl)benzimidazole], the IC50 [3] is reported as 19.2 µM.
In the case of `COc1ccc(Cn2c(-c3ccc(C)o3)nc3ccc(C(=O)c4ccccc4)cc32)cc1` [Example 76, 6-benzoyl-1-(4-methoxybenzyl)-2-(5-methyl-2-furyl)benzimidazole], the IC50 [3] is reported as > 50 µM.
For `COc1cccc(Cn2c(-c3ccc(C)o3)nc3ccc(C(=O)c4ccccc4)cc32)c1` [Example 77, 6-benzoyl-1-(3-methoxybenzyl)-2-(5-methyl-2-furyl)benzimidazole], the IC50 [3] was > 50 µM.
With `Cc1ccc(-c2nc3ccc(C(=O)c4ccccc4)cc3n2Cc2ccc(F)cc2)o1` [Example 78, 6-benzoyl-1-(4-fluorobenzyl)-2-(5-methyl-2-furyl)benzimidazole] the IC50 [3] was 25.8 µM.
For `Cc1ccc(-c2nc3ccc(C(=O)c4ccccc4)cc3n2Cc2cccc(F)c2)o1` [Example 79, 6-Benzoyl-1-(3-fluorobenzyl)-2-(5-methyl-2-furyl)benzimidazole], the IC50 [3] was > 50 µM.
For `Cc1ccc(-c2nc3ccc(C(=O)c4ccccc4)cc3n2Cc2ccccc2F)o1` [Example 80, 6-benzoyl-1-(2-fluorobenzyl)-2-(5-methyl-2-furyl)benzimidazole], the IC50 [3] was > 50 µM.
With `Cc1ccc(Cn2c(-c3ccc(C)o3)nc3ccc(C(=O)c4ccccc4)cc32)cc1` [Example 81, 6-benzoyl-1-(4-methylbenzyl)-2-(5-methyl-2-furyl)benzimidazole] the IC50 [3] was > 50 µM.
In the case of `Cc1ccc(-c2nc3ccc(C(=O)c4ccccc4)cc3n2Cc2ccccc2C)o1` [Example 83, 6-benzoyl-1-(2-methylbenzyl)-2-(5-methyl-2-furyl)benzimidazole], the IC50 [3] is reported as > 50 µM.
For `Cc1ccc2c(c1CCC(=O)O)CC[C@@H](NS(=O)(=O)c1ccc(Cl)cc1)C2` [Example S18886], the Thromboxane synthase [4] is given as “↓” and the Thromboxane receptor [5] is given as “↓”.
For `O=C(O)CCCCO/N=C(/c1cccnc1)c1cccc(C(F)(F)F)c1` [Ridogrel], the Thromboxane synthase [4] is listed as “↓”, the IC50 ([4]; reference drug) is listed as 1 nM and the PGI2 formation [6] is listed as “↑”. The Thromboxane receptor [5] was “↓” and the IC50 ([5]; reference drug) was 1000 nM.
For `CC(=O)Oc1ccccc1C(=O)O` [aspirin, reference compound], the IC50 [7] is listed as 313 ± 18.7 µM, the “effect on U46619-induced platelet aggregation” value ([3]; 500 μM, data not shown) is listed as “no effect” and the “Cox-1,-2” value [8] is listed as “↓”. For the same compound, the PGI2 formation [6] was “↓”, the IC50 ([1]; Platelet, washed human platelets, read-out: IC50 collagen-induced platelet aggregation in human PS) was ~190 µM and the IC50 [9] was 5.1 ± 0.7 mM. For the same compound, the occlusion time ([10]; 250 μg g^−1 i.v.) was 175.5 ± 25.3 s, the “occlusion time at return to control, within 60 min” value ([10]; 250 μg g^−1 i.v.) was 82.6 ± 9.4 s and the “occlusion time within 40 min after administration” value ([10]; 250 μg g^−1 i.v.) was 155.0 ± 7.1 s. The “time until occlusion time returned to the control value” ([10]; 250 μg g^−1 i.v.) was ≤ 60 min, the “change of occlusion time” value ([10]; low dose (below 250 μg g^−1)) was “did not significantly change” and the “time to FeCl3-induced occlusion” value [11] was “about 10 min”. The FeCl3-induced thrombus formation [11] was “blocked”, the inhibition at 500 µM [12] was 96% and the “gastric lesions (>2 mm)” value [13] was “marked lesions”.
In the case of `COc1ccc2c(c1)c(CC(=O)O)c(C)n2C(=O)c1ccc(Cl)cc1` [indomethacin, reference compound], the “effect on U46619-induced platelet aggregation” value ([3]; U46619 1 μM, indomethacin concentration not given) is reported as “without effects”.
In the case of heparin, the “time to FeCl3-induced occlusion” value [11] is reported as “about 10 min” and the FeCl3-induced thrombus formation [11] is reported as “blocked”.
